Values of other authors as cited in paper PMC6264278, “Corydaline Inhibits Multiple Cytochrome P450 and UDP-Glucuronosyltransferase Enzyme Activities in Human Liver Microsomes” (Molecules, 2011).

What was measured:
CYP2D6 = system: CYP2D6; parameters: method as in PMID 21425377, PMID 14570772; details: read-out: IC50, inhibitory effect on CYP2D6 activity; cited from earlier work
UGT1A9 = system: UGT1A9; parameters: method as in PMID 21245288; details: read-out: Ki, UGT1A9 inhibition; cited from earlier work
CYP2C9 = details: read-out: IC50, CYP2C9 inhibition; cited from earlier work

## COc1ccc2cc3[n+](cc2c1OC)CCc1cc2c(cc1-3)OCO2 [berberine]
CYP2D6
  IC50: 49.4 µM

## O=C(O)c1cccnc1Nc1cccc(C(F)(F)F)c1 [niflumic acid]
UGT1A9
  Ki: 0.1 to 0.4 µM

## COc1cc2c(cc1OC)-c1cc3ccc(OC)c(OC)c3c[n+]1CC2 [palmatine]
CYP2D6
  IC50: 92.6 µM
